# Assay results as given in article doi:10.1101/2024.04.15.589505v1 (biorxiv, 2024).
# Columns and labels:
# [1] = target: T1, DENV2 protease (DENV2pro; DENV serotype 2 NS2B-NS3 protease construct, GGGGSGGGG-linked) (Dengue virus 2 Thailand/16681/84, UniProt P29990); assay: biochemical
# [2] = target: T1, DENV2 protease (DENV2pro; DENV serotype 2 NS2B-NS3 protease construct, GGGGSGGGG-linked); assay: biochemical; format: binding
# T1 sequence (P29990 1394-1440 limits assumed): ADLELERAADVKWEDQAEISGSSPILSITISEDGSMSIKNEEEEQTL
# T1 sequence (P29990 1476-1660 limits assumed): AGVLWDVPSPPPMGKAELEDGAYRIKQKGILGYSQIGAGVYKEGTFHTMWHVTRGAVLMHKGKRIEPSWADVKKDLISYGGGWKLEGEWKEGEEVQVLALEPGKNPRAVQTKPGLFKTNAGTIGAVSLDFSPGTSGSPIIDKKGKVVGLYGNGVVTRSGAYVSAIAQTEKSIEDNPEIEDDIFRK
Compound,IC50 [1],Kd [2]
CCCCCC(=O)N[C@H](C(=O)NCc1ccc(NC(=N)N)cc1)c1ccc(OCc2ccccc2)cc1 [compound 3],17.6 ± 2.15 µM,–
NC(=O)c1cccc(NC(=O)[C@@H](NC(=O)c2ccc(Oc3ccccc3)cc2)c2ccc(OCc3ccccc3)cc2)c1 [compound 4],5.37 ± 0.73 µM,–
N=C(N)NCCC[C@H](NC(=O)[C@H](CCCNC(=N)N)NC(=O)c1ccccc1)B(O)O [compound 1],0.68 ± 0.01 µM,–
NC(=O)c1ccc(CNC(=O)[C@@H](NC(=O)c2ccc(-c3cccs3)s2)c2ccc(OCc3ccccc3)cc2)cc1 [compound 23],–,2.4 ± 0.6 µM
CC(C)(C)NC(=O)C(=O)/C=C/c1c[nH]c2ccccc12 [compound 5],37.1 ± 1.29 µM,–
